Test results from PubChem BioAssay (NCI).
Where “and” joins values, the source holds several entries; their conditions need not be identical. Equal entries are not always repeated.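 Exposure lasted 48 hours, with cells grown in 96-well plates and compounds tested at five concentrations. GI50: concentration for 50% inhibition of growth. The concentration for full growth arrest is given as TGI.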

Key:
Assay in all cases: growth of human tumour cells (NCI), 48 h
HS 578T breast = test system: HS 578T breast
MDA-MB-435 = test system: MDA-MB-435
SN12C renal = test system: SN12C renal
CCRF-CEM leukemia = test system: CCRF-CEM leukemia
SF-268 CNS = test system: SF-268 CNS
OVCAR-3 ovarian = test system: OVCAR-3 ovarian
NCI/ADR-RES ovarian = test system: NCI/ADR-RES ovarian
A549 NSCLC = test system: A549 NSCLC
CAKI-1 renal = test system: CAKI-1 renal
ACHN renal = test system: ACHN renal

| SMILES | GI50 (HS 578T breast) | TGI (HS 578T breast) | GI50 (MDA-MB-435) | TGI (MDA-MB-435) | GI50 (SN12C renal) | TGI (SN12C renal) | GI50 (CCRF-CEM leukemia) | TGI (CCRF-CEM leukemia) [µM] | GI50 (SF-268 CNS) | TGI (SF-268 CNS) | GI50 (OVCAR-3 ovarian) | TGI (OVCAR-3 ovarian) | GI50 (NCI/ADR-RES ovarian) | TGI (NCI/ADR-RES ovarian) [µM] | GI50 (A549 NSCLC) | TGI (A549 NSCLC) | GI50 (CAKI-1 renal) | TGI (CAKI-1 renal) | GI50 (ACHN renal) | TGI (ACHN renal) |
| --- | --- | --- | --- | --- | --- | --- | --- | --- | --- | --- | --- | --- | --- | --- | --- | --- | --- | --- | --- | --- |
| CCCCCCNC(=O)c1nc(-c2ccccc2)oc1Cc1ccc(OP(=O)(O)O)cc1 | 18.7 µM | 54.8 µM | 16.4 µM | 30.5 µM | 17 µM | 32.9 µM | 24 µM | 67 | 17.3 µM | 35.4 µM | 17.1 µM | 31.4 µM | 20.3 µM | 42 | 18 µM | 36 µM | 15.8 µM | 33.6 µM | 15.5 µM | 29.5 µM |
| COc1cc(CNCCCN2C(=O)c3ccc4c5c(ccc(c35)C2=O)C(=O)N(CCCNCc2cc(OC)c(OC)c(OC)c2)C4=O)cc(OC)c1OC | 1.2 µM | 3.76 µM | 0.367 µM | 1.11 µM | 0.227 µM | 0.475 µM | 0.3 µM | 4.07 | 0.542 µM | 2.27 µM | 0.143 µM | 0.382 µM | 9.16 µM | 39 | 0.305 µM | 0.977 µM | 3.28 µM | 9.64 µM | 0.841 µM | 3.17 µM |
| O=C(c1c(F)ccc(NS(=O)(=O)N2CC[C@@H](F)C2)c1F)c1c[nH]c2ncc(-c3cnc(C4CC4)nc3)cc12 | 2.33 µM and 2.06 µM | > 10 µM and 15.7 µM | 0.0174 µM and 0.0272 µM | > 10 µM and 23.1 µM | 4.89 µM and 4.81 µM | > 10 µM and 54.2 µM | 6.52 µM and 7.64 µM | > 100 | 5.86 µM and 6.77 µM | > 10 µM and 71.3 µM | > 8.35 µM and 6.04 µM | > 10 µM and 57.4 µM | > 10 µM and 25.2 µM | > 100 | 5.85 µM and 7.09 µM | > 10 µM and 40.3 µM | 3.22 µM and 3.29 µM | > 10 µM and 29.8 µM | 4.91 µM and 4.34 µM | > 65.9 µM |
| N=c1ccn2c(n1)OC1C(O)C(CO)OC12 (stereo not given) | > 100 µM | > 1000 µM | 2.59 µM | > 1000 µM | 3.13 µM | > 621 µM | 0.102 µM and 0.0335 µM | 92.2 | 2.41 µM | > 619 µM | 163 µM and 99.6 µM | > 1000 µM | 0.659 µM | > 753 | 0.337 µM | > 1000 µM | 0.394 µM | 260 µM and > 100 µM | 0.237 µM | 14 µM and 3.49 µM |
| CCCn1c(N)c(C(=O)N/N=C(/C)c2cc3cccc(OC)c3o2)sc1=S | 17.7 µM | 69.9 µM | 56.6 µM | > 100 µM | 45 µM | > 100 µM | 30.7 µM | > 100 | 22.4 µM | > 100 µM | 30.1 µM | > 100 µM | 18.6 µM | > 100 | 12.5 µM | > 100 µM | 0.0161 µM | > 100 µM | 46.8 µM | > 100 µM |
| C=CC(=O)N1CCC(C2CCNc3c(C(N)=O)c(-c4ccc(Oc5ccccc5)cc4)nn32)CC1 (stereo not given) | 20.6 µM | 78.4 µM | 13.4 µM | 38 µM | 13.4 µM | > 100 µM | 24.8 µM | > 100 | 6.98 µM | 45 µM | 12.2 µM | 56.2 µM | 16.4 µM | 61 | 21.2 µM | > 100 µM | 4.51 µM | 71 µM | 2.32 µM | 23.6 µM |
